Structures are written as SMILES. Values after ≈ are worked out from the molar mass of the structure shown.

Assay [1] relates to Plasmodium falciparum. The arrangement: method as in PMID 18922036. The following applies: cited from earlier work.
The test system of assay [2] is Plasmodium falciparum FcB1 (chloroquine-resistant). The experiment in a line: In vitro antiplasmodial assay ([3H]-hypoxanthine incorporation). Format: cell-based. The note with it: Plasmodium falciparum, FCB1; triplicate (except compound 24), mean ±SD; read-out: IC50 P. falciparum FcB1. The protocol: In vitro antiplasmodial assays: The chloroquine-resistant strain FcB1/Colombia of Plasmodium falciparum was maintained in vitro on human erythrocytes in RPMI 1640 medium supplemented by 8% (v/v) heat-inactivated human serum, at 37 °C, under an atmosphere of 3% CO2, 6% O2, and 91% N2. In vitro drug susceptibility assays was measured by [3H]-hypoxanthine incorporation as described. Drugs were prepared in DMSO at a 10 mg/mL concentration. Compounds were serially diluted two-fold with 100 µL culture medium in 96-well plates. Asynchronous parasite cultures (100 µL, 1% parasitaemia and 1% final hematocrite) were then added to each well and incubated for 24 h at 37 °C prior to the addition of 0.5 µCi of [3H]- hypoxanthine (GE Healthcare, France, 1 to 5 Ci·mmol/mL) per well. After a further incubation of 24 h, plates were frozen and thawed. Cell lysates were then collected onto glass-fiber filters and counted in a liquid scintillation spectrometer. The growth inhibition for each drug concentration was determined by comparison of the radioactivity incorporated in the treated culture with that in the control culture maintained on the same plate. The concentration causing 50% growth inhibition (IC50) was obtained from the drug concentration–response curve and the results were expressed as the mean values ± standard deviations determined from several […]
independent experiments. Chloroquine diphosphate (Sigma–Aldrich) was used as antimalarial drug control. […]

For assay [3], the system named is Trypanosoma brucei gambiense strain Feo bloodstream forms. As to the kind of experiment: Antitrypanosomal assay (resazurin). The class given is cell-based. The note with it: Trypanosoma brucei, GAMBIENSE; 72 h incubation; read-out: IC50 T. brucei gambiense. The protocol: page 10: independent experiments. Chloroquine diphosphate (Sigma–Aldrich) was used as antimalarial drug control. Antitrypanosomal activities: Bloodstream forms of Trypanosoma brucei gambiense strain Feo were cultured in HMI9 medium supplemented with 10% FCS at 37 °C under an atmosphere of 5% CO2. Antitrypanosomal assays were performed as previously described. In all experiments, log-phage cell cultures were harvested by centrifugation at 3,000g and immediately used. Drug assays were based on the conversion of a redox-sensitive dye (resazurin) to a fluorescent product by viable cells. Drug stock solutions were prepared in pure DMSO. […] After a 72 h incubation, resazurin solution was added in each well at the final concentration of 45 µM. Fluorescence was measured at 530 nm excitation and 590 nm emission wavelengths after a further 4 h incubation. Each inhibitor concentration was tested in triplicate. The percentage of inhibition of parasite growth rate was calculated by comparing the fluorescence of parasites maintained in the presence of drug to that in the absence of drug. DMSO was used as a control. IC50s were determined from the dose–response curves with drug concentrations ranging from 100 µM to 50 nM. Pentamidine was used as antitrypanosomal drug control. MIC determination: Indicator strains were obtained from the German Collection of Microorganisms and Cell Cultures (Deutsche Sammlung für Mikroorganismen und Zellkulturen, DSMZ) or were part of our internal strain collection. All microorganisms were handled under standard conditions recommended by the depositor. Overnight S10

The test system of assay [4] is HCT-116 human colon carcinoma cells. As to the kind of experiment: Cytotoxicity, growth inhibition (MTT). The note with it: Homo sapiens, HCT-116, 120 h, read-out: IC50: half inhibitory concentration, HCT-116. Format: cell-based. The protocol: (§1) The cytotoxic activity of aurachin D (4) and analogues 9–11 and 17–19 was evaluated in growth inhibition experiments on mammalian cell lines (Table 2). After 5 days treatment, half inhibitory concentrations (IC50) were determined for human HCT-116 colon carcinoma and human K562 myelogenous leukemia cells. […]
(§2) was further incubated for 1.5 h. The medium was then discarded and 100 µL 2-propanol/10 N HCl (250:1) was added in order to dissolve formazan granules. The absorbance at 570 nm was measured using a microplate reader (EL808, Bio-Tek Instruments Inc.) and cell viability was expressed as a percentage relative to the respective solvent control. […]

Assay [5] concerns K562 myelogenous leukemia cells. As to the kind of experiment: Cytotoxicity, growth inhibition (MTT). Format: cell-based. The note with it: Homo sapiens, K562, 120 h; 5 days treatment; triplicate, mean ±SD; read-out: IC50: half inhibitory concentration, K562. The protocol:
as §1, §2

Assay [6] deals with Bacillus subtilis DSM10. As to the kind of experiment: MIC determination. The class given is cell-based. The note with it: Bacillus subtilis, DSM10; duplicate, mean ±SD. The protocol:
(§3) MIC determination: Indicator strains were obtained from the German Collection of Microorganisms and Cell Cultures (Deutsche Sammlung für Mikroorganismen und Zellkulturen, DSMZ) or were part of our internal strain collection. All microorganisms were handled under standard conditions recommended by the depositor. Overnight […]
(§4) cultures of bacteria were prepared in EBS medium (0.5% casein peptone, 0.5% proteose peptone, 0.1% meat peptone, 0.1% yeast extract; pH 7.0). Yeasts and molds were grown in Myc medium (1% phytone peptone, 1% glucose, 50 mM
(§5) HEPES, pH 7.0). The overnight cultures of microorganisms were diluted to OD600 0.01 (bacteria) or 0.05 (yeasts/molds) in the respective growth medium. Serial dilutions of compounds were prepared as duplicates in sterile 96-well plates. The cell suspension was added and microorganisms were grown overnight on a microplate shaker (900 rpm, 30 °C or 37 °C). Growth inhibition was assessed by measuring the OD600 on a plate reader (POLARstar, BMG Labtech). MIC50 values were determined as averages relative to respective control samples by sigmoidal curve fitting. […]

For assay [7], the system named is Escherichia coli (TolC). The experiment in a line: MIC determination. Format: cell-based. The note with it: read-out: MIC50 Escherichia coli (TolC). The protocol: as §3, §4, §5
Assay [8] relates to Escherichia coli DH5α (wt). As to the kind of experiment: MIC determination. The class given is cell-based. The following applies: duplicate, mean ±SD. The protocol: as §3, §4, §5
In assay [9] the test system is Klebsiella pneumoniae DSM30104. As to the kind of experiment: MIC determination. The class given is cell-based. The note with it: duplicate, mean ±SD. The protocol: as §3, §4, §5
Assay [10] deals with Micrococcus luteus. As to the kind of experiment: MIC determination. The following applies: duplicate, mean ±SD. The class given is cell-based. The protocol:
as §3, §4, §5

For assay [11], the system named is Staphylococcus aureus DSM11822 (MRSA). The experiment in a line: MIC determination. The following applies: duplicate, mean ±SD. The class given is cell-based. The protocol: as §3, §4, §5
Assay [12] relates to Staphylococcus aureus Newman (MSSA). As to the kind of experiment: MIC determination. The class given is cell-based. The note with it: duplicate, mean ±SD. The protocol: as §3, §4, §5
Assay [13] deals with Vero cells (nontumor cells). The experiment in a line: Cytotoxicity on Vero cells (MTT). The class given is cell-based. The note with it: 48 h incubation. The protocol:
was further incubated for 1.5 h. The medium was then discarded and 100 µL 2-propanol/10 N HCl (250:1) was added in order to dissolve formazan granules. The absorbance at 570 nm was measured using a microplate reader (EL808, Bio-Tek Instruments Inc.) and cell viability was expressed as a percentage relative to the respective solvent control. VERO cells: VERO cells were seeded into 96-well microplates at 10^5 cells per mL in RPMI supplemented with 10% foetal calf serum.
After 24 h, the cells were washed and two microliters of two-fold serial dilutions of each compound (10 mg/mL) was added to 100 μL of medium. Cells were then incubated for 48 h at 37 ° C under a 5% CO2 atmosphere. At the end of incubation, 20 µL of MTT solution (5 mg/mL) was added to each well and further incubated for 4 h at 37 °C to allow the formation of formazan. The crystals of formazan were then dissolved with 100 µL of a freshly prepared solution of sodium dodecyl sulfate (SDS) 10% (15 mL) and HCl 1 N (150 µL). The optical density of each well was measured at 595 nm using a multiwell plate reader. The 50% inhibition concentration was then determined by curve fitting.
MMP assay: Human U-2 OS osteosarcoma cells (HTB-96) were obtained from the American Type Culture Collection (ATCC) and were cultured under the conditions recommended by the depositor. Cells from actively growing cultures were harvested and seeded at 8 × 10^3 cells per well in 96-well imaging plates (BD Falcon). After 1 d cells reached approximately 60% confluency and were treated with aurachin analogues at the assigned concentrations for 16 h. In addition, cells were stimulated with 1 µM FCCP [carbonyl cyanide 4-(trifluoromethoxy)phenylhydrazone] as a positive control 1 h prior to the measurement. For labeling, cells were washed twice with assay buffer ([…], 5.4 mM KCl, 2 mM MgCl2, 10 mM glucose, 2 mM CaCl2, 10 mM HEPES; pH 7.35) and 100 µL of a staining solution (50 nM TMRM,

Assay [14] has as its system Plasmodium. The arrangement: method as in PMID 15215101. The note with it: read-out: antiplasmodial IC50; cited from earlier work.

As to `CC(C)=CCC/C(C)=C/CC/C(C)=C/Cc1c(C)n2c(=O)[nH]c3cccc(c1=O)c32` [aurachin E], in assay [1], the “IC50 Plasmodium falciparum” value is given as “around 20 ng/mL”.

With `Cc1[nH]c2ccccc2c(=O)c1Br` [compound 24, 3-bromo-2-methyl-4(1H)-quinolone], the IC50 in assay [2] was determined as 1.1 µg/mL (≈ 4.62 µM); in assay [3] it was 1.7 µg/mL (≈ 7.14 µM).

Take `Cc1[nH]c2ccccc2c(=O)c1C` [compound 11]: the IC50 in assay [4] is above 10 µg/mL; in assay [5], above 10 µg/mL; in assay [2] it was 2.3 ± 1.4 µg/mL (≈ 13.3 µM); in assay [3] it was above 10 µg/mL. In addition, the MIC50 – broadly, the lowest concentration that inhibits either 50% of growth or 50% of the strains tested, depending on the study – in assay [6] was 49 ± 6.26 µg/mL (≈ 283 µM); in assay [7], above 64 µg/mL; in [8] it was above 64 µg/mL; in [9] it was above 64 µg/mL; in [10], above 64 µg/mL; in [11], above 64 µg/mL. The same molecule came in with an MIC50 in assay [12] above 64 µg/mL.

As for `CC(C)=CCC/C(C)=C/CC/C(C)=C/Cc1c(O)c(C)[n+]([O-])c2ccccc12` [aurachin B], in assay [1], the “IC50 Plasmodium falciparum” value was “around 20 ng/mL”.

Take `CC(C)=CCc1c(C)[nH]c2ccccc2c1=O` [compound 10]: the IC50 is above 10 µg/mL in assay [4], around 10 µg/mL (≈ 44 µM) in assay [5], 0.55 ± 0.16 µg/mL (≈ 2.42 µM) in [2] and 5.8 µg/mL (≈ 25.5 µM) in assay [3]. Besides, the MIC50 in [6] was 0.22 ± 0.06 µg/mL (≈ 0.968 µM); in assay [7], 6.55 ± 1.36 µg/mL (≈ 28.8 µM); in assay [8], above 64 µg/mL; in assay [9], above 64 µg/mL; in [10] it was 14.3 ± 1.29 µg/mL (≈ 63 µM); in assay [11], 11.3 ± 1.44 µg/mL (≈ 49.7 µM). The molecule further had an MIC50 in assay [12] of 9.66 ± 2.39 µg/mL (≈ 42.5 µM).

For `Cc1c2c(c3ccccc3[n+]1[O-])O[C@H]([C@](C)(O)CCC1OC1(C)C)C2` (stereo partly shown) [compound 22], the IC50 in assay [13] is above 50 µg/mL.

Turning to `Cc1cc(=O)c2ccccc2[nH]1` [compound 23, 2-methyl-4(1H)-quinolone, reference compound], the IC50 in assay [2] is 7.7 ± 2.5 µg/mL (≈ 48.4 µM); in assay [3], above 10 µg/mL.

`CC(C)=CCC/C(C)=C/CC/C(C)=C/CO` [farnesol]: the IC50 in [14] was 64 µM.

As to `CC(C)=CCC/C(C)=C/CC/C(C)=C/Cc1c(C)n(O)c2ccccc2c1=O` [aurachin C], in assay [1], the “IC50 Plasmodium falciparum” value is recorded as “around 20 ng/mL” and the “fold higher antiplasmodial activity compared to aurachin D” value was “approximately 200 fold”.

For the molecule `Cc1c(C)n(O)c2ccccc2c1=O` [compound 25, N-hydroxy-2,3-dimethyl-4(1H)-quinolone], the IC50 in assay [2] was 2.7 ± 1.3 µg/mL (≈ 14.3 µM); in assay [3], above 10 µg/mL.

(Values after publication PMC3740496, “Synthesis and biological activities of the respiratory chain inhibitor aurachin D and new ring versus chain analogues” (Beilstein Journal of Organic Chemistry, 2013).)
